Values quoted from earlier work as cited in patent publication US20210069174A1, “COMPOSITIONS AND METHODS FOR TREATMENT OF CYSTIC FIBROSIS” (Vertex Pharmaceuticals Incorporated, priority 2017, published 2021).

Tested on: CFTR
Conditions: CFTR modulator; disclosed in PCT Publication No. WO 2016/057572

Q: Which EC30 does the source give for `CC(C)COc1cc(F)cc(-c2ccc(C(=O)NS(=O)(=O)c3ccccc3)c(N3C[C@@H](C)CC3(C)C)n2)c1` [Compound I, N-(benzenesulfonyl)-6-(3-fluoro-5-isobutoxy-phenyl)-2-[(4S)-2,2,4-trimethylpyrrolidin-1-yl]pyridine-3-carboxamide] here?
A: Its EC30 is less than 3 µM.
